The values that follow come from ChEMBL document CHEMBL1146862, “Synthesis of trifluoromethylaryl diazirine and benzophenone derivatives of etomidate that are potent general anesthetics and effective photolabels for probing sites on ligand-gated ion channels” (J Med Chem, 2006).

Calls of active or inactive are those of the source. The rule behind the calls is not given here. A value given as a limit tells only on which side of the number the result lay.

In assay [1] the target is T1, Serotonin 3 (5-HT3) receptor (Homo sapiens) (UniProt P46098+A5X5Y0+O95264+Q70Z44+Q8WXA8). Description: Inhibition of 5HT3 receptor at 0.22 uM. The assay is classed as protein-complex assay.
For assay [2], the target named is T2, GABA-A receptor; anion channel (Homo sapiens) (UniProt P14867+P47870+P18507+P28472+P48169+Q99928+Q9UN88+P34903+O00591+O14764+Q8N1C3+P18505+P78334+P47869+P31644+Q16445). Description: Enhancement of [3H]flunitrazepam binding to cerebral cortex GABA-A receptor at 0.1 uM. The assay is classed as tissue-based.
Assay [3] relates to Xenopus sp. Description: Anesthetic activity in Xenopus tadpole measured as loss of righting reflex. The assay is classed as functional, organism-based.
Assay [4] has as its target T3, GABA-A receptor; alpha-1/beta-2/gamma-2 (Homo sapiens) (UniProt P14867+P47870+P18507). Description: Enhancement of current in Xenopus laevis oocytes expressing human GABA-Alpha1 receptor plus beta-2-gamma-2L upto 10 uM. The assay is classed as functional, cell-based. The following applies: Oocyte.
The target in assay [5] is Acetylcholine receptor subunit alpha (Torpedo californica) (UniProt P02710). The assay is described as follows: Photolabeling of Torpedo californica alpha nAChR in presence of agonist relative to in absence of agonist. The assay is classed as functional. The following applies: Tetronarce californica.
Chain of Acetylcholine receptor subunit alpha (Torpedo californica) (P02710 whole entry): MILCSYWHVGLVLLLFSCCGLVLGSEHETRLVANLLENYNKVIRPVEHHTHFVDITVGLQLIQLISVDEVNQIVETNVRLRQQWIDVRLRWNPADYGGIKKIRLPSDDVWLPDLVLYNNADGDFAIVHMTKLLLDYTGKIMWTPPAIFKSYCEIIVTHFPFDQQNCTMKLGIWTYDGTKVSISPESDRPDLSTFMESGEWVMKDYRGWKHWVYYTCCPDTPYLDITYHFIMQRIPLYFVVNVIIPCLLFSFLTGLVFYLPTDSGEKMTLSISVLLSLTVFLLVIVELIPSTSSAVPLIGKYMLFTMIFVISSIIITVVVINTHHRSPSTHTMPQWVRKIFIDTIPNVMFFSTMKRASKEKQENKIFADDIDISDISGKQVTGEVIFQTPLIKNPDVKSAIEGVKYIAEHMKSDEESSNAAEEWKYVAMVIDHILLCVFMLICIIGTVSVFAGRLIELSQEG
The target in assay [6] is T2, GABA-A receptor; anion channel (Homo sapiens). The assay is described as follows: Reduction of [3H]flunitrazepam binding to cerebral cortex GABA-A receptor at 100 uM relative to control. Further details: scale not given: the % may be the effect or the level left. The assay is classed as tissue-based.
In assay [7] the target is T1, Serotonin 3 (5-HT3) receptor (Homo sapiens). The assay is described as follows: Inhibition of 5HT3 receptor at 2.2 uM. The assay is classed as protein-complex assay.
The target in assay [8] is T2, GABA-A receptor; anion channel (Homo sapiens). The assay is described as follows: Enhancement of [3H]flunitrazepam binding to cerebral cortex GABA-A receptor at >=0.3 uM. The assay is classed as tissue-based.
The target of assay [9] is T3, GABA-A receptor; alpha-1/beta-2/gamma-2 (Homo sapiens). Description: Enhancement of current in Xenopus laevis oocytes expressing human GABA-Alpha1 receptor plus beta-2-gamma-2L upto 1 uM. The assay is classed as functional, cell-based. The conditions noted are these: Oocyte.
Assay [10] has as its target T2, GABA-A receptor; anion channel (Homo sapiens). The assay is described as follows: Enhancement of [3H]flunitrazepam binding to cerebral cortex GABA-A receptor at 1 uM. The assay is classed as tissue-based.
Assay [11] has as its target T1, Serotonin 3 (5-HT3) receptor (Homo sapiens). The assay is described as follows: Inhibition of 5HT3 receptor at 0.7 uM. The assay is classed as protein-complex assay.
Assay [12] concerns the target T2, GABA-A receptor; anion channel (Homo sapiens). Description: Enhancement of [3H]flunitrazepam binding to cerebral cortex GABA-A receptor at >=1 uM. The assay is classed as tissue-based.
Assay [13] addresses T1, Serotonin 3 (5-HT3) receptor (Homo sapiens). Description: Inhibition of 5HT3 receptor at 2.3 uM. The assay is classed as protein-complex assay.
Assay [14] deals with T4, Acetylcholine receptor subunit delta (Torpedo californica) (UniProt P02718).
T4 sequence (whole entry): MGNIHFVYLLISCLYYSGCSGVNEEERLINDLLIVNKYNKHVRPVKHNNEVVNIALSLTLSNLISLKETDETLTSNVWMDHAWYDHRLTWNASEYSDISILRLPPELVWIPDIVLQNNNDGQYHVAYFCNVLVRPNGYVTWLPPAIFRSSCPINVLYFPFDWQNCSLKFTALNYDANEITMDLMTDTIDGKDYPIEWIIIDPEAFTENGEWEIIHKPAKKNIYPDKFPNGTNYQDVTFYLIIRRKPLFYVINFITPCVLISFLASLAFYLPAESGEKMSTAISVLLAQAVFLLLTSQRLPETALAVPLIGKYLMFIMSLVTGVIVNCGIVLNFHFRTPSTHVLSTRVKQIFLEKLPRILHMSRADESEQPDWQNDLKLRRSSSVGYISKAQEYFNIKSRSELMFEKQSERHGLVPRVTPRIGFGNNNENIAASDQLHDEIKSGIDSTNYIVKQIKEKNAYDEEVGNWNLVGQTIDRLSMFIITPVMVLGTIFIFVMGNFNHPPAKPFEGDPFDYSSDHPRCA
The assay is described as follows: Photolabeling of Torpedo californica delta nAChR in presence of agonist relative to in absence of agonist. The assay is classed as functional. The conditions noted are these: Tetronarce californica.

Broadly, the inhibition is the relative decrease from the control value, in per cent. The EC50 is the midpoint of the concentration-response curve. `C[C@H](c1ccccc1)n1cncc1C(=O)OCc1ccc(C(=O)c2ccccc2)cc1`: the inhibition in assay [1] is under 10%. Moreover, in [2], the result was Active. In assay [3], this molecule yielded an EC50 of 220 nM. Further, the outcome in assay [4] was inactive.
As to `CCCC(C(=O)OCCN(CC)CC)(c1ccccc1)c1ccccc1`, the Activity in [5] stood at 70%.
As to `CC(c1ccccc1)n1cncc1C(=O)OCCC1(C)N=N1` (stereo not drawn) [AZIETOMIDATE], in [6], the Activity was found to be 115%. Moreover, the inhibition in [7] turned out to be 8%. Besides, in assay [3], the EC50 came to 2200 nM. Also, the outcome in assay [8] was Active.
Consider `C[C@H](c1ccccc1)n1cncc1C(=O)OCc1ccc(C2(C(F)(F)F)N=N2)cc1`, for which, in assay [9], the outcome was inactive. This molecule came in with an EC50 in [3] of 700 nM. In addition, the outcome in [10] was Active. The molecule further showed an inhibition in [11] of under 10%.
`CCOC(=O)c1cncn1[C@H](C)c1ccccc1` [ETOMIDATE] gave an Activity in assay [6] of 78.5%. This molecule also yielded an EC50 in assay [3] of 2300 nM. In addition, in [12], the result was Active. Also, the inhibition in assay [13] came out at 11%.
As for `C[N+](C)(C)CCOC(N)=O`, in assay [14], the Activity amounted to 60%.
